The text below walks through data of US12011436B2, “Use of NOX inhibitors for treatment of cancer” (CALLIDITAS THERAPEUTICS SUISSE SA, priority 2017, dated 2024).

This experiment has as its system 4T1 cancer cells mixed with BALB/C breast CAFs. Kind of experiment: 4T1 breast cancer cells co-injected with CAFs into the mammary fat pad of mice, NOX4 inhibitor treatment. The format is in vivo, mouse. As to conditions: 4T1+CAF tumours. Here is the method: Fourteen (14) days after randomization and if the antitumor activity of NOX4/1 compounds alone or in combination is considered sufficient, tumors from 5 satellite mice per group are collected, weighed and the tumor is cut in 2 fragments. One fragment is cut into slices 4 mm thick and fixed in 4% neutral buffered formalin for 24 to 48 h, and then embedded in paraffin (Histosec®, Merck, Darmstadt, Germany). One fragment is embedded in tissue Freezing Medium (Microm Microtech, France), snap-frozen in isopentane cooled over liquid nitrogen and stored at […] until processing. Immunohistochemical stains for CD3, CD4 and CD8 are performed on paraffin-embedded tissue sections using standard techniques (Biodoxis, France). The number of CD3, CD4 and CD8 immunopositive cells per field are counted. When 4T1 cancer cells (0.5×105) are used, those are injected in PBS s.c into the upper mammary fat pad of female mice aged 8-10 weeks. Cells are either injected on their own, or mixed with 2.5×105 BALB/C breast CAFs isolated from transgenic BALBneuT spontaneous stromal-rich breast tumours. […] GKT137831 was reconstituted in 1.2% Methyl Cellulose (Sigma) with 0.1% Polysorbate (Sigma) and administered by oral gavage 5×/week at 40 mg/kg. Control mice received vehicle by oral gavage. For longer term dosing, 15 initial doses were given as stated, but reduced to 3×/week for 3 weeks at 50 mg/kg, then 2×/week for 3 weeks at 60 mg/kg. The anti PD-1 antibody (Bioxcell; RMP1-14) was given via […]) injection. 300 μg of the antibody or the IgG2a isotype control (Bioxcell) were given when tumours were palpable every other day, totaling 3 doses. For the data presented under FIG. 1, tumours were measured every 2-3 days by electronic skin caliper from longest width and length. Tumour volume was calculated using the formula 4/3πXr3, where the radius (r) was calculated from tumour width and length measurement to provide an average diameter value. Mice were randomized into groups based on tumour volume so that no statistical difference occurred between mean tumour volumes between groups before treatments began. […]

Each structure is given as a SMILES string.

In the case of `CN(C)c1cccc(-c2c3c(=O)n(-c4ccccc4Cl)[nH]c3cc(=O)n2C)c1` [GKT, 2-(2-chlorophenyl)-4-[3-(dimethylamino)phenyl]-5-methyl-1H-pyrazolo [4,3-c]pyridine-3,6(2H,5H)-dione], the “SMA-positive CAF in tumours (immunochemistry)” value (FIG. 1B) is listed as “significantly reduces”. For the setting “FIG. 1C”, the “CD8+ T-cell location in tumour (immunochemistry)” value was “relocation of CD8+ T-cells from the tumour edge into the centre of the tumour”. For the same compound, the “tumour volume vs vehicle alone” value (day 15, after 8 days of treatment, oral gavage 40 mg/kg 5x/week, FIG. 1A) is reported as “significantly smaller”.
